Earlier results as cited in patent US10676418B2, “Method for producing microparticles from pressurized and heated starting material solution” (M. TECHNIQUE CO., LTD., priority 2016, dated 2020).

Details: 25° C.; normal temperature and pressure

SMILES: COc1cc(/C=C/C(=O)CC(=O)/C=C/c2ccc(O)c(OC)c2)ccc1O [curcumin]
- solubility in ethanol: about 0.5 % by weight
